According to patent US20140066385A1, “METHOD FOR TREATING CANCER BY COMBINED USE OF DRUGS” (Astellas Pharma Inc., priority 2011, published 2014):

What was measured:
[1] = system: human gastric cancer (AZ-521); assay: Example 5: FK330 with paclitaxel in AZ-521 tumor-bearing mice; assay type: in vivo, nude mice; details: for tumor volume on the last day of experiment: AZ-521, Day 46, mean±SEM
Experimental: (§1) Preparation of the test substances was carried out in the same manner as in Example 2.
(§2) Human gastric cancer-derived NCI-N87 (CRL-5822) was obtained from American Type Culture Collection (VA, USA), MKN-28 (JCRB0253) was obtained from Health Science Research Resources Bank (HSRRB), and AZ-521 (RCB2087) was obtained from Riken BRC. NCI-N87 and MKN-28 cells were cultured under the conditions of 37° C. and 5% CO2 by using RPMI1640 medium containing 10% heat-inactivated fetal bovine serum (FBS), and AZ-521 cells were cultured under the conditions of 37° C. and 5% CO2 by using DMEM medium containing 10% heat-inactivated FBS. The cells were harvested with trypsin and were suspended in PBS at 6×10^7 cells/mL, and the suspension was mixed with an equal amount of Matrigel (trade name) Basement Membrane Matrix (manufactured by Becton Dickinson Co., Bedford, Mass., USA).
(§3) Five-week old male nude mice (CAnN Cg-Foxn1nu/CrlCrlj(nu/nu)) were purchased from Charles River Laboratories Japan, Inc. (Japan, Kanagawa). The animals were raised under specific pathogen-free (SPF) conditions throughout the test period by feeding standard feedstuff and drinking water. The cultured cells were subcutaneously inoculated into the dorsal region of the nude mice at a concentration of 3×10^6 cells/0.1 mL/mouse. […]
(§4) Every 2 to 4 days, the body weight and the tumor diameters, determined by using a digital caliper, were measured. The tumor volume was calculated from the calculation formula for ellipsoid volume of (major axis×[minor axis]^2×0.52).
(§5) The results are expressed as the mean value (Mean)±standard error (SEM). Using the actual measured values of the tumor volume at each measurement time point, an unpaired statistical test (Student's t-test) of the difference between two groups was carried out between a single administration group and a combined use group. […]

[2] = system: human gastric cancer (NCI-N87); assay: Example 5: FK330 with paclitaxel in NCI-N87 tumor-bearing mice; assay type: in vivo, nude mice; details: for tumor volume on the last day of experiment: NCI-N87, Day 56, mean±SEM
Experimental: as §1, §2, §3, §4, §5

[3] = paclitaxel-only group 10 mg/kg/day i.v., two cycles

O=C(/C=C/c1ccc(Cl)cc1)N[C@@H](Cc1ccccn1)C(=O)NCC(=O)N1CCC(Oc2cc(C(F)(F)F)ncn2)CC1 [FK330, N^2-[(2E)-3-(4-chlorophenyl)-2-propenoyl]-N-[2-oxo-2-(4-{[6-(trifluoromethyl)pyrimidin-4-yl]oxy}piperidin-1-yl)ethyl]-3-pyridin-2-yl-L-alaninamide]
tumor volume on the last day of experiment ([1]; combined use group paclitaxel 10 mg/kg/day + FK330 100 mg/kg bid): 795.0±223.3 mm^3 | tumor volume decrease compared with the paclitaxel-only group ([1]; AZ-521, last day, FK330 100 mg/kg bid + paclitaxel, P<0.01): 75.8% | tumor volume on the last day of experiment ([2]; combined use group paclitaxel + FK330 100 mg/kg bid): 223.9±85.1 mm^3 | tumor volume decrease compared with the paclitaxel-only group ([2]; NCI-N87, last day, FK330 100 mg/kg bid + paclitaxel, P<0.03): 54.5%

CC(=O)O[C@H]1C(=O)[C@@]2(C)[C@H]([C@H](OC(=O)c3ccccc3)[C@]3(O)C[C@H](OC(=O)[C@H](O)[C@@H](NC(=O)c4ccccc4)c4ccccc4)C(C)=C1C3(C)C)[C@]1(OC(C)=O)CO[C@@H]1C[C@@H]2O [paclitaxel, reference compound]
tumor volume on the last day of experiment [1, 3]: 3285.4±359.4 mm^3 | tumor volume on the last day of experiment [2, 3]: 492.0±48.5 mm^3
